Data on 26 compounds can be found in patent publication US12247033B2, “Triazole-substituted imidazo[1,2-a]pyrimidines as cGAS inhibitors” (GlaxoSmithKline Intellectual Property Development Limited, priority 2022, dated 2025).

Where a name gives a salt, the structure may show the parent alone.

In one test the test system is CGAS. Briefly: CGAS whole blood cytokine release assay (384-well, BacMam stimulation, IP-10 by cytometric bead array). The conditions noted are these: Homo sapiens, 6 h; read-out: hWB pXC50 (converted). The format is cell-based. The procedure: Blood collection: Blood was collected in a tube containing 10% Sodium Heparin (5 ml/45 ml blood final).
Protocol for CGAS Whole Blood Cytokine Release Assay: Compounds serial diluted at 1:3 were provided at 150 nL per well, in a 384 well polypropylene microplate (cat. 781280; Greiner Bio-One, Frickenhausen, Germany). 5 μL of PBS/20% Null BacMam was dispensed to all wells except for column 18 on a Multidrop Combi (Thermo Scientific, Waltham, MA). 5 uL of PBS was dispensed into column 18. The Bravo (Agilent, Santa Clara, CA) was used to transfer 45 uL of donor derived blood into the compound plates. The Bravo protocol mixed the blood and compound/PBS 5 times. The plates were incubated at 37° C., 5% CO2, for 6 hours. At the 6 hour mark the plates were removed and centrifuged for 10 minutes at 3000 RPM. 3 uL of supernatant was transferred from the plate to a 384 well NBS microplate (cat. 4513; Corning Life Sciences, Corning, NY). These plates were sealed with adhesive foil and stored in a −80 freezer until ready for analysis.
For cytokine detection, Human IP-10 BD cytometric bead array (CBA) beads (BD Biosciences, Franklin Lakes, NJ) were used. Capture bead solution was prepared by performing a 1:50 dilution of the IP-10 capture bead stock solution in BD diluent for serum/plasma (cat. 51-9003991 BD Biosciences, Franklin Lakes, NJ). 2 μL of this solution was added per well to the assay microplates which were then sealed with adhesive foil and incubated at room temperature for 2 h in the dark. Detection reagent was further prepared by performing a 1:50 dilution of the detection reagent stock solution. 2 μL of detection reagent was added per well and microplates were sealed with adhesive foil and incubated at room temperature in the dark for 1 h. After the 1 h incubation 3 uL of BD CBA wash buffer was added per well of the microplates. Data were acquired on an iQue Screener flow cytometer. The iQue used fluorescence detection to quantify the inhibition of IP-10 present in the sample wells. A sip time of 1 second per sample was used. The blue laser with excitation of 488 nm and emission filters 585/40 nm were used to capture the mean and median of IP-10 with the detector in logarithmic mode (FL2-H).
All data analysis was carried out in IDBS ActivityBase XE.
As to `OCc1ccn2c(-c3cnc[nH]3)c(-c3nc(C(F)(F)F)n[nH]3)nc2n1` [Example 9, [3-(1H-imidazol-5-yl)-2-[3-(trifluoromethyl)-1H-1,2,4-triazol-5-yl]imidazo[1,2-a]pyrimidin-7-yl]methanol, 0.3 trifluoroacetic acid salt], the IC50 was 0.1 µM.
Take `FC(F)(F)COc1ccn2c(-c3cnc[nH]3)c(-c3nc(C(F)(F)F)n[nH]3)nc2n1` [Example 12, 5-[3-(1H-imidazol-5-yl)-7-(2,2,2-trifluoroethoxy)imidazo[1,2-a]pyrimidin-2-yl]-3-(trifluoromethyl)-1H-1,2,4-triazole]: the IC50 is 6.31 µM.
Turning to `FC(F)(F)c1n[nH]c(-c2nc3ncc(CC4CCCC4)cn3c2-c2cnc[nH]2)n1` [Example 17, 5-[6-(cyclopentylmethyl)-3-(1H-imidazol-5-yl)imidazo[1,2-a]pyrimidin-2-yl]-3-(trifluoromethyl)-1H-1,2,4-triazole, trifluoroacetic acid salt], the IC50 was 1.26 µM.
Still for that read-out and setting: next, `CNCCOC(=O)OCn1cnc(-c2c(-c3nc(C(F)(F)F)n[nH]3)nc3ncccn23)c1` [Example 26, 2-(methylamino)ethyl (4-{2-[3-(trifluoromethyl)-1H-1,2,4-triazol-5-yl]imidazo[1,2-a]pyrimidin-3-yl}-1H-imidazol-1-yl)methyl carbonate, 2 trifluoroacetic acid salt]: 0.0398 µM.
Still for that read-out and setting: next, `O=C(O)CCOC(=O)OCn1cnc(-c2c(-c3nc(C(F)(F)F)n[nH]3)nc3ncccn23)c1` [Example 32, 3-({[(4-{2-[3-(trifluoromethyl)-1H-1,2,4-triazol-5-yl]imidazo[1,2-a]pyrimidin-3-yl}-1H-imidazol-1-yl)methoxy]carbonyl}oxy)propanoic acid, 0.5 trifluoroacetic acid salt]: 3.16 µM; `CC(=O)n1cnc(-c2c(-c3nc(C(F)(F)F)n[nH]3)nc3ncccn23)c1` [Example 62, 1-(4-{2-[3-(trifluoromethyl)-1H-1,2,4-triazol-5-yl]imidazo[1,2-a]pyrimidin-3-yl}-1H-imidazol-1-yl)ethan-1-one]: 0.126 µM; `FC(F)(F)c1cnc2nc(-c3nc(C(F)(F)F)n[nH]3)c(-c3cnc[nH]3)n2c1` [Example 64, 5-[3-(1H-imidazol-5-yl)-6-(trifluoromethyl)imidazo[1,2-a]pyrimidin-2-yl]-3-(trifluoromethyl)-1H-1,2,4-triazole]: 0.398 µM.
Same read-out and setting: the same measure for `FC(F)(F)c1n[nH]c(-c2nc3ncc(COC4CCOCC4)cn3c2-c2c[nH]cn2)n1` [Example 65, 5-[3-(1H-imidazol-4-yl)-6-[(oxan-4-yloxy)methyl]imidazo[1,2-a]pyrimidin-2-yl]-3-(trifluoromethyl)-1H-1,2,4-triazole]: 0.501 µM; for `CS(=O)(=O)N1Cc2cn3c(-c4cnc[nH]4)c(-c4nc(C(F)(F)F)n[nH]4)nc3nc2C1` [Example 67, 12-(1H-imidazol-5-yl)-5-methanesulfonyl-11-[3-(trifluoromethyl)-1H-1,2,4-triazol-5-yl]-1,5,8,10-tetraazatricyclo[7.3.0.0^3,^7]dodeca-2,7,9,11-tetraene]: 2.51 µM.
As for `CC(=O)N(C)Cc1cnc2nc(-c3nc(C(F)(F)F)n[nH]3)c(-c3cnc[nH]3)n2c1` [Example 76, N-{[3-(1H-imidazol-5-yl)-2-[3-(trifluoromethyl)-1H-1,2,4-triazol-5-yl]imidazo[1,2-a]pyrimidin-6-yl]methyl}-N-methylacetamide], the IC50 is 5.01 µM.
`CCOCc1cnc2nc(-c3nc(C(F)F)n[nH]3)c(-c3cnc[nH]3)n2c1` [Example 85, 3-(difluoromethyl)-5-[6-(ethoxymethyl)-3-(1H-imidazol-5-yl)imidazo[1,2-a]pyrimidin-2-yl]-1H-1,2,4-triazole]: the IC50 is 0.0501 µM.
Consider `FC(F)(F)c1ccn2c(-c3cnc[nH]3)c(-c3nc(Br)n[nH]3)nc2n1` [Example 91, 3-bromo-5-[3-(1H-imidazol-5-yl)-7-(trifluoromethyl)imidazo[1,2-a]pyrimidin-2-yl]-1H-1,2,4-triazole], for which the IC50 is 1 µM.
As to `FC(F)(F)c1ccn2c(-c3cn[nH]c3)c(-c3nc(C(F)(F)F)n[nH]3)nc2n1` [Example 93, 5-[3-(1H-pyrazol-4-yl)-7-(trifluoromethyl)imidazo[1,2-a]pyrimidin-2-yl]-3-(trifluoromethyl)-1H-1,2,4-triazole], the IC50 is 2.51 µM.
Consider `COC(=O)c1ccn2c(-c3c[nH]cn3)c(-c3nc(C(F)(F)F)n[nH]3)nc2n1` [Example 100, methyl 3-(1H-imidazol-4-yl)-2-[3-(trifluoromethyl)-1H-1,2,4-triazol-5-yl]imidazo[1,2-a]pyrimidine-7-carboxylate], for which the IC50 is 0.398 µM.
In the case of `FC(F)COCc1cnc2nc(-c3nc(C(F)(F)F)n[nH]3)c(-c3cnc[nH]3)n2c1` [Example 101, 5-{6-[(2,2-difluoroethoxy)methyl]-3-(1H-imidazol-5-yl)imidazo[1,2-a]pyrimidin-2-yl}-3-(trifluoromethyl)-1H-1,2,4-triazole], the IC50 was 0.126 µM.
In the case of `CCN1Cc2cn3c(-c4cnc[nH]4)c(-c4nc(C(F)(F)F)n[nH]4)nc3nc2C(F)(F)C1` [Example 108, 11-ethyl-13,13-difluoro-6-(1H-imidazol-5-yl)-5-[3-(trifluoromethyl)-1H-1,2,4-triazol-5-yl]-2,4,7,11-tetraazatricyclo[7.4.0.0^3,^7]trideca-1,3,5,8-tetraene], the IC50 is 0.631 µM.
Same read-out and setting: next, `FC(F)Oc1n[nH]c(-c2nc3ncccn3c2-c2cnc[nH]2)n1` [Example 113, 3-(difluoromethoxy)-5-[3-(1H-imidazol-5-yl)imidazo[1,2-a]pyrimidin-2-yl]-1H-1,2,4-triazole]: 1 µM; `CCOCc1cn2c(-c3cnc[nH]3)c(-c3nc(C(F)(F)F)n[nH]3)nc2nc1C(F)(F)F` [Example 115, 5-[6-(ethoxymethyl)-3-(1H-imidazol-5-yl)-7-(trifluoromethyl)imidazo[1,2-a]pyrimidin-2-yl]-3-(trifluoromethyl)-1H-1,2,4-triazole]: 1.58 µM.

The target in another test is human CGAS (157-522) (Homo sapiens, UniProt Q8N884). The test is described as follows: biochemical.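 Also: biochemical enzyme reaction, 2′3′-cGAMP product measured by RapidFire mass spectrometry (MRM) normalised to c-di-UMP internal standard, inhibition of product formation relative to high and low control wells.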
Chain of human CGAS (157-522) (Q8N884 157-522): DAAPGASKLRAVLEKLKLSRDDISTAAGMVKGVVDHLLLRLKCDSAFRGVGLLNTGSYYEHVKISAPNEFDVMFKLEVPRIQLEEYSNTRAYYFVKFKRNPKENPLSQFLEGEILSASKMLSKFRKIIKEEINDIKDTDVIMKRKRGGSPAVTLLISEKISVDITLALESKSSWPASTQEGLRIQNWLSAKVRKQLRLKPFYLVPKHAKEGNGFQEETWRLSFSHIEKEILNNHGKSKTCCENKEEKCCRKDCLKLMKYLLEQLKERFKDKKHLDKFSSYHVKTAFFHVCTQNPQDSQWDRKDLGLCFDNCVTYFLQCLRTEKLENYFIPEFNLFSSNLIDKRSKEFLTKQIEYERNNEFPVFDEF
Conditions: not given
Take `O=C(O)c1ccn2c(-c3c[nH]cn3)c(-c3nc(C(F)(F)F)n[nH]3)nc2n1` [Example 102, 3-(1H-imidazol-4-yl)-2-[3-(trifluoromethyl)-1H-1,2,4-triazol-5-yl]imidazo[1,2-a]pyrimidine-7-carboxylic acid]: the IC50 is 0.00316 µM.
`CC(O)C(O)COCc1cnc2nc(-c3nc(C(F)(F)F)n[nH]3)c(-c3cnc[nH]3)n2c1` (centres unmarked) [Example 112, 1-{[3-(1H-imidazol-5-yl)-2-[3-(trifluoromethyl)-1H-1,2,4-triazol-5-yl]imidazo[1,2-a]pyrimidin-6-yl]methoxy}butane-2,3-diol] had an IC50 of 0.00794 µM.
The same measure, in the same setting: next, `[O-][S+]1CCc2nc3nc(-c4nc(C(F)(F)F)n[nH]4)c(-c4cnc[nH]4)n3cc2C1` (centres unmarked) [Example 116, 6-(1H-imidazol-5-yl)-5-[3-(trifluoromethyl)-1H-1,2,4-triazol-5-yl]-11λ^4-thia-2,4,7-triazatricyclo[7.4.0.0^3,^7]trideca-1,3,5,8-tetraen-11-one]: 0.00501 µM; `FC(F)(F)c1n[nH]c(-c2nc3ncc(COc4cccnc4)cn3c2-c2cnc[nH]2)n1` [Example 119, 3-{[3-(1H-imidazol-5-yl)-2-[3-(trifluoromethyl)-1H-1,2,4-triazol-5-yl]imidazo[1,2-a]pyrimidin-6-yl]methoxy}pyridine]: 0.158 µM; `FC(F)(F)c1n[nH]c(-c2nc3ncc(CCN4CCOCC4)cn3c2-c2cnc[nH]2)n1` [Example 122, 4-{2-[3-(1H-imidazol-5-yl)-2-[3-(trifluoromethyl)-1H-1,2,4-triazol-5-yl]imidazo[1,2-a]pyrimidin-6-yl]ethyl}morpholine]: 0.00501 µM.
The compound `Cn1cc(-c2c(-c3nc(C(F)(F)F)n[nH]3)nc3ncccn23)cn1` [Example 131, 5-[3-(1-methyl-1H-pyrazol-4-yl)imidazo[1,2-a]pyrimidin-2-yl]-3-(trifluoromethyl)-1H-1,2,4-triazole] showed an IC50 of 15.8 µM.
With `CN1CCC(Oc2ccn3c(-c4c[nH]cn4)c(-c4nc(C(F)(F)F)n[nH]4)nc3n2)CC1` [Example 132, 4-{[3-(1H-imidazol-4-yl)-2-[3-(trifluoromethyl)-1H-1,2,4-triazol-5-yl]imidazo[1,2-a]pyrimidin-7-yl]oxy}-1-methylpiperidine], the IC50 was 0.0398 µM.
For the compound `Cc1cn(C)c(COCc2cnc3nc(-c4nc(C(F)(F)F)n[nH]4)c(-c4c[nH]cn4)n3c2)n1` [Example 158, 5-(6-{[(1,4-dimethyl-1H-imidazol-2-yl)methoxy]methyl}-3-(1H-imidazol-4-yl)imidazo[1,2-a]pyrimidin-2-yl)-3-(trifluoromethyl)-1H-1,2,4-triazole], the IC50 is 0.00794 µM.
